Test results: ChEMBL document CHEMBL1909526, “Berkeleyones and related meroterpenes from a deep water acid mine waste fungus that inhibit the production of interleukin 1-β from induced inflammasomes” (J Nat Prod, 2011)

Columns and labels:
Caspase-1 (Homo sapiens) [1] = target: T1, Caspase-1 (Homo sapiens) (UniProt P29466); assay: Inhibition of caspase1 in differentiated human THP-1 cells at 100 ug/ml after 24 hrs by fluorometric assay; format: cell-based
T1 sequence (whole entry): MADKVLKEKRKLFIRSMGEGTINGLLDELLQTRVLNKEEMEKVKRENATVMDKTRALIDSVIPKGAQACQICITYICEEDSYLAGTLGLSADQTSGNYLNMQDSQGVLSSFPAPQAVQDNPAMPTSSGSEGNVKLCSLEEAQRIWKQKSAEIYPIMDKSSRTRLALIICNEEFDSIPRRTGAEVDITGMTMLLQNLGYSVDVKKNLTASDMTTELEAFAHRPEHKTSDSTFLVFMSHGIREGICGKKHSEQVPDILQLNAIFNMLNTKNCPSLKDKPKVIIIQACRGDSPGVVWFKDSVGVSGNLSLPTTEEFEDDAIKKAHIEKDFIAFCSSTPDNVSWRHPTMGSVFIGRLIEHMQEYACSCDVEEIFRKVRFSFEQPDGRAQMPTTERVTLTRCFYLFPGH

Caspase-1 (Homo sapiens) [2] = target: T1, Caspase-1 (Homo sapiens); assay: Inhibition of caspase1 in differentiated human THP-1 cells at 0.0005 ug/ml after 24 hrs by fluorometric assay; format: cell-based

Structure (SMILES)	inhibition (Caspase-1 (Homo sapiens) [1]) [%]	inhibition (Caspase-1 (Homo sapiens) [2]) [%]
C=C1[C@@]2(C)C[C@@H]3[C@](C)(CC=C4C(C)(C)OC(=O)CC[C@]43C)[C@]1(C(=O)OC)C(=O)[C@@](C)(O)C2=O	100	–
C=C1[C@@]2(C)C[C@H]3C(C)=C4CC(=O)OC(C)(C)C4=CC[C@]3(C)[C@]1(C(=O)OC)C(=O)[C@@](C)(O)C2=O	89	–
CC(=O)N[C@@H](Cc1ccc(O)cc1)C(=O)N[C@H](C(=O)N[C@@H](C)C(=O)N[C@H](C=O)CC(=O)O)C(C)C	–	100
C=C(C)C1=CC[C@@]2(C)[C@@H](C[C@]3(C)C(=C)[C@@]2(C(=O)OC)C(=O)[C@@](C)(O)C3=O)[C@]1(C)CCC(=O)O	0	–
C=C1[C@@]2(C)C[C@H]3[C@]4(C)CCC(=O)OC(C)(C)[C@@H]4CC[C@]3(C)[C@]1(C(=O)OC)C(=O)[C@@](C)(O)C2=O	77	–

Results, then the compound that gave them:

inhibition (Caspase-1 (Homo sapiens) [1]) [%]	inhibition (Caspase-1 (Homo sapiens) [2]) [%]	Structure (SMILES)
68	–	C=C1[C@@]2(C)C[C@H]3[C@]4(C)CC[C@@H](O)C(C)(C)[C@H]4CC[C@]3(C)[C@]1(C(=O)OC)C(=O)[C@@](C)(O)C2=O
97	–	C=C1[C@@]2(C)C[C@H]3[C@]4(C)CCC(=O)C(C)(C)[C@H]4CC[C@]3(C)[C@]1(C(=O)OC)C(=O)[C@@](C)(O)C2=O
